According to US6608032B1, “Medicinal compositions” (Takara Shuzo Co., Ltd., priority 1999, dated 2003):
Where two headings read alike, the source gives them in different places.

Key:
HL-60 cells = test: Proliferation of HL-60 cells with or without hydroxyurea G1 arrest, WST-1; assay type: cell-based; details: read-out: IC50 (concentration at which 50% of the proliferation is inhibited)
Method: HL-60 cells (ATCC CCL-240) were suspended in RPMI 1640 medium (Bio Whittaker, 12-702F) containing 10% fetal calf serum (Gibco) and […] at a concentration of 5×10^5 cells/ml. 20 ml of the suspension was added to a 10-cm Petri dish. The dish was incubated at 37° C. overnight in the presence of 5% CO2 to make the cells arrest at G1 phase. The cells were collected by centrifugation and resuspended in RPMI 1640 medium containing 10% fetal calf serum (Gibco) and 100 μM hydroxyurea at a concentration of 5×10^5 cells/ml. 5 ml of the suspension was added to each well of a 6-well microtiter plate. On the other hand, as cells without the treatment with hydroxyurea, HL-60 cells were suspended in RPMI 1640 medium containing 10% fetal calf serum (Gibco) at a concentration of 1×10^5 cells/ml. 5 ml of the suspension was added to each well of a 6-well microtiter plate. 50 μl of a solution containing agarobiose at a concentration of 80, 60, 40 or 20 mM in water, or 50 μl of a solution containing the agarohexaose at a concentration of 80, 60, 40 or 20 mM in water was added to the well containing the cells treated with hydroxyurea. 50 μl of a solution containing agarobiose at a concentration of 40, 30, 20 or 10 mM in water, or 50 μl of a solution containing agarohexaose at a concentration of 40, 30, 20 or 10 mM in water was added to the well containing the cells without the treatment with hydroxyurea. The plate was incubated for additional 48 hours. Cells collected by centrifuging the culture were suspended in 5 ml of fresh RPMI 1640 medium containing 10% fetal calf serum (Gibco). 100 μl of the suspension was used for measuring the viable cell number using Premix WST-1 Cell Proliferation Assay System (Takara Shuzo, MK400).

heme oxygenase 1 protein = test: Heme oxygenase 1 induction in RAW264.7 cells (Western blot); assay type: cell-based; design: key: − represents no band observed; increase in the intensity of the band is represented as follows:+−<+<++; increase in the intensity of the band is represented as follows:+−<+<++; increase in the intensity of the band is represented as follows:+−<+<++; details: 15 hours
Method: RAW264.7 cells (ATCC TIB 71) were suspended in Dulbecco's modified Eagle's medium (Bio Whittaker, 12-604F) containing 10% fetal calf serum (Gibco) at a concentration of 3×10^5 cells/ml. 5 ml of the suspension was added to each well of a 6-well microtiter plate and the plate was incubated at 37° C. overnight in the presence of 5% CO2. 50 μl of a solution containing agarobiose or agarohexaose in Referential Example 1 at a concentration of 20 mM, 10 mM or 5 mM in water was added to the well. The plate was incubated for 15 hours. A positive control for heme oxygenase 1 induction in which 5 μl of 3 mM solution of 15-deoxy-Δ12,14 prostaglandin J2 (Cayman Chemical, 18570) in dimethyl sulfoxide was added, and a negative control in which water was added were provided. The cells were recovered by detaching the cells from the plate using a scraper and suspended in 0.1 M tris-HCl buffer (pH 7.5) containing 0.05 mM pepstatin A (Sigma, P5318), 0.2 mM leupeptin (Sigma, L2884), 1 mM phenylmethylsulfonyl fluoride (Nacalai Tesque, 273-27), 10 mm ethylenediaminetetraacetic acid disodium salt and 0.1% Triton X-100. A supernatant obtained by centrifuging the suspension after freezing and thawing was used as a protein fraction. The content of protein in the protein fraction was determined using Micro BCA Protein Assay Reagent (a product of Pierce sold by Takara Shuzo, P7411). A sample from the protein fraction prepared as described above was mixed with an equal volume of 0.125 M tris-hydrochloride buffer (pH 6.8) containing 4% sodium lauryl sulfate (SDS), 2% 2-mercaptoethanol, 0.001% Bromophenol Blue and 20% glycerol. After treatment at 100° C. for 5 minutes, a portion corresponding to 10 μg of protein was loaded on 12.5% SDS-polyacrylamide gel and electrophoresed at a constant current of 20 mA. After electrophoresis, the gel was transferred to a PVDF membrane (Millipore, IPVH000 10) at a constant voltage of 15 V for 25 minutes using a blotting buffer (containing 48 mM tris, 39 mM glycine, 20% methanol and 0.0375% SDS) and Trans-Blot SD Cell Semi-Dry blotting apparatus (Bio-Rad) according to the attached protocol. After transferring, the PVDF membrane was blocked in a solution of Block Ace (Dainippon Pharmaceutical, UK-B25) at 4° C. overnight. After blocking, the membrane washed three times in phosphate buffered saline containing 0.1% Tween 20 for 15 minutes with gentle shaking. The membrane was reacted in phosphate buffered saline containing 10% Block Ace, 0.1% Tween 20 and 200 ng/ml of anti-heme oxygenase 1 antibody (N-19; Santa Cruz, sc-7696) at room temperature for 1 hour with gentle shaking, and then washed three times in phosphate buffered saline containing 0.1% Tween 20 for 15 minutes with gentle shaking. The membrane was reacted in phosphate buffered saline containing 10% Block Ace, 0.1% Tween 20 and 0.1% peroxidase-labeled rabbit anti-goat IgG (H+L) antibody (Zymed, 61-1620) at room temperature for 1 hour with gentle shaking, and then washed five times in phosphate buffered saline containing 0.1% Tween 20 for 15 minutes with gentle shaking. The PVDF membrane was stained using Western Blot Chemiluminescence Reagent Plus (a product of NEN Life Science Products sold by Daiichi Pure Chemicals, NEL103) according to the attached protocol and exposed to an X-ray film (Kodak, CAT165 1454). After exposure, the film was developed using FPM800 (Fuji Film).
The intensity of the band depended on the concentration of agarobiose or agarohexaose. In the table, the intensity of the band for heme oxygenase 1 protein is expressed by the mark+. Specifically, − represents no band observed, and increase in the intensity of the band is represented as follows:+−<+<++.

IC50 (HL-60 cells; Cells treated with hydroxyurea (arrested at G1 phase), 48 hours)	IC50 (HL-60 cells; Cells without treatment with hydroxyurea, 48 hours)	Structure (SMILES)	Intensity of band for heme oxygenase 1 protein (heme oxygenase 1 protein; final concentration of 50 μM)	Intensity of band for heme oxygenase 1 protein (heme oxygenase 1 protein; final concentration of 100 μM)	Intensity of band for heme oxygenase 1 protein (heme oxygenase 1 protein; final concentration of 200 μM)	IC50 (HL-60 cells; Homo sapiens, HL-60, 48 h, Cells treated with hydroxyurea (arrested at G1 phase))	IC50 (HL-60 cells; Homo sapiens, HL-60, 48 h, Cells without treatment with hydroxyurea)
401 µM	211 µM	OC[C@H]1O[C@@H](O[C@H]2[C@H]3OC[C@@H]2OC(O)[C@H]3O)[C@H](O)[C@@H](O)[C@H]1O (mixture of isomers) [Agarobiose, agarobiose]	+−	+	++		
		OCC1OC(OC2C3COC2C(O)C(OC2C(O)C(CO)OC(OC4C5COC4C(O)C(OC4C(O)C(CO)OC(OC6C7COC6C(O)C(O)O7)C4O)O5)C2O)O3)C(O)C(O)C1O (stereo not shown) [Agarohexaose, agarohexaose]	+−	+	++	383 µM	205 µM
